In patent publication US9315498B2, “Arlethynyl derivatives” (Hoffmann-La Roche Inc., priority 2010, dated 2016):

Biological target: human mGlu5a receptor (Homo sapiens (Human), UniProt P41594)
Experiment: Intracellular Ca2+ mobilization assay (mGlu5 PAM)
Format: cell-based
Details: for EC50: HEK-293 cells stably transfected with human mGlu5a, L-glutamate added at EC20 after pre-incubation with test compound, read-out: EC50 (nM) mGlu5PAM; for Emax: maximal response in % of the maximal stimulatory effect obtained with saturating concentrations of L-glutamate, read-out: Eff. (%)
Experimental: A monoclonal HEK-293 cell line stably transfected with a cDNA encoding for the human mGlu5a receptor was generated; for the work with mGlu5 Positive Allosteric Modulators (PAMs), a cell line with low receptor expression levels and low constitutive receptor activity was selected to allow the differentiation of agonistic versus PAM activity. Cells were cultured according to standard protocols (Freshney, 2000) in Dulbecco's Modified Eagle Medium with high glucose supplemented with 1 mM glutamine, 10% (vol/vol) heat-inactivated bovine calf serum, Penicillin/Streptomycin, 50 μg/ml hygromycin and 15 μg/ml blasticidin (all cell culture reagents and antibiotics from Invitrogen, Basel, Switzerland).
About 24 hrs before an experiment, 5×10^4 cells/well were seeded in poly-D-lysine coated, black/clear-bottomed 96-well plates. The cells were loaded with 2.5 μM Fluo-4AM in loading buffer (1×HBSS, 20 mM HEPES) for 1 hr at 37° C. and washed five times with loading buffer. The cells were transferred into a Functional Drug Screening System 7000 (Hamamatsu, Paris, France), and 11 half logarithmic serial dilutions of test compound at 37° C. were added and the cells were incubated for 10-30 min. with on-line recording of fluorescence. Following this pre-incubation step, the agonist L-glutamate was added to the cells at a concentration corresponding to EC20 (typically around 80 μM) with on-line recording of fluorescence; in order to account for day-to-day variations in the responsiveness of cells, the EC20 of glutamate was determined immediately ahead of each experiment by recording of a full dose-response curve of glutamate.
Responses were measured as peak increase in fluorescence minus basal (i.e. fluorescence without addition of L-glutamate), normalized to the maximal stimulatory effect obtained with saturating concentrations of L-glutamate. Graphs were plotted with the % maximal stimulatory using XLfit, a curve fitting program that iteratively plots the data using Levenburg Marquardt algorithm. The single site competition analysis equation used was y=A+((B−A)/(1+((x/C)D))), where y is the % maximal stimulatory effect, A is the minimum y, B is the maximum y, C is the EC50, x is the log10 of the concentration of the competing compound and D is the slope of the curve (the Hill Coefficient). From these curves the EC50 (concentration at which half maximal stimulation was achieved), the Hill coefficient as well as the maximal response in % of the maximal stimulatory effect obtained with saturating concentrations of L-glutamate were calculated.
A depression of the signal observed after addition of the EC20 concentration of L-glutamate was indicative of an inhibitory activity of the test compound.

Chain of human mGlu5a receptor (P41594 other isoform, or with tags, fused parts or gaps): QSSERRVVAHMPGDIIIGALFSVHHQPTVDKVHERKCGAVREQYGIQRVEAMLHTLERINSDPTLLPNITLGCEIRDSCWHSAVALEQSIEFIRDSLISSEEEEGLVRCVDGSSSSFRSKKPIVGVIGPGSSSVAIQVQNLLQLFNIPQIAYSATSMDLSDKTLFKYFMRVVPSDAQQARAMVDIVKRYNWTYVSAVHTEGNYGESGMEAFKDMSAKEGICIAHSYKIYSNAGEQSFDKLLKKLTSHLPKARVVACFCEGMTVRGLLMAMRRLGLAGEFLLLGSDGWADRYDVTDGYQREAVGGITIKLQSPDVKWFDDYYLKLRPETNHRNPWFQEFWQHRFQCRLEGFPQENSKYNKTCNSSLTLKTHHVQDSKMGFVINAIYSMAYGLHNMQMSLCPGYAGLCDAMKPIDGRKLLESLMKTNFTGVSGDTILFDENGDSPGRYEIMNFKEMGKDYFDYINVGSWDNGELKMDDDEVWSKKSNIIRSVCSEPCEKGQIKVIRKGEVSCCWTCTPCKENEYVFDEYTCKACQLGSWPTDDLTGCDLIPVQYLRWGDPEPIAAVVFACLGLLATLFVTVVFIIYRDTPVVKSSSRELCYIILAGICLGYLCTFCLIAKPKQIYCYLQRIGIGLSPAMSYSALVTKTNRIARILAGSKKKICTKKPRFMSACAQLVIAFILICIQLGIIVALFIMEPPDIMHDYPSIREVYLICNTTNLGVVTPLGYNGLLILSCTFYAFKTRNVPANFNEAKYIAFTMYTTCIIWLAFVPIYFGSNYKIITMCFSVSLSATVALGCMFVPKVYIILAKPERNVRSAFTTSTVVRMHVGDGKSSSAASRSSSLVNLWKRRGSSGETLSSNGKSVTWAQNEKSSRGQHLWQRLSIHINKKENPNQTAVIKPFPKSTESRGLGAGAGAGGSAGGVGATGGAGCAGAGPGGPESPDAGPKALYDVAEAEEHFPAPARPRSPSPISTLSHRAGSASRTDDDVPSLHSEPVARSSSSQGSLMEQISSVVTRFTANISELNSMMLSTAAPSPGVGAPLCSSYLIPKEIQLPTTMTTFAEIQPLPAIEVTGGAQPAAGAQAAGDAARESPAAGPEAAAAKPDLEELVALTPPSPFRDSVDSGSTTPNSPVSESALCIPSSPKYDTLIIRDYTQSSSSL

Structure (SMILES) | EC50 [nM] | Emax [%]
O=C1N(c2ccc(C#Cc3cccnc3)cn2)CC2CCCCN12 (racemic) [Example 70, (RS)-2-(5-Pyridin-3-ylethynyl-pyridin-2-yl)-hexahydro-imidazo[1,5-a]pyridin-3-one] | 74 | 51
CC1(C)CC(=O)N(c2ncc(C#Cc3ccccc3)cn2)C1 [Example 115, 4,4-Dimethyl-1-(5-phenylethynyl-pyrimidin-2-yl)-pyrrolidin-2-one] | 13 | 109
CN1C(=O)N(c2ccc(C#Cc3cccc(F)c3)cn2)[C@@H]2CCC[C@@H]21 (racemic) [Example 109, (3aSR,6aRS)-1-[5-(3-Fluoro-phenylethynyl)-pyridin-2-yl]-3-methyl-hexahydro-cyclopenta-imidazol-2-one] | 18 | 37
CC1(C)CC(=O)N(c2ncc(C#Cc3ccc(F)cc3)cn2)C1 [Example 120, 1-[5-(4-Fluoro-phenylethynyl)-pyrimidin-2-yl]-4,4-dimethyl-pyrrolidin-2-one] | 92 | 81
CC1(C)CCN(c2ncc(C#Cc3cccc(F)c3)cn2)C(=O)C1 [Example 135, 1-[5-(3-Fluoro-phenylethynyl)-pyrimidin-2-yl]-4,4-dimethyl-piperidin-2-one] | 35 | 47
CC1(C)CN(c2ccc(C#Cc3cncc(F)c3)cn2)C(=O)O1 [Example 29, 3-[5-(5-Fluoro-pyridin-3-ylethynyl)-pyridin-2-yl]-5,5-dimethyl-oxazolidin-2-one] | 15 | 45
CC1(C)OC(=O)N(c2ccc(C#Cc3ccccc3)cn2)C1(C)C [Example 28, 4,4,5,5-Tetramethyl-3-(5-phenylethynyl-pyridin-2-yl)-oxazolidin-2-one] | 48 | 31
Cn1cc(C#Cc2ccc(N3CC(C)(C)OC3=O)nc2)cn1 [Example 31, 5,5-Dimethyl-3-[5-(1-methyl-1H-pyrazol-4-ylethynyl)-pyridin-2-yl]-oxazolidin-2-one] | 26 | 55
O=C1N(c2ccc(C#Cc3cccc(F)c3)cn2)CC2CCCCN12 (racemic) [Example 71, (RS)-2-[5-(3-Fluoro-phenylethynyl)-pyridin-2-yl]-hexahydro-imidazo[1,5-a]pyridin-3-one] | 17 | 41
CC1CN(c2ncc(C#Cc3ccc(F)cc3)cn2)C(=O)OC1(C)C (racemic) [Example 149, (RS)-3-[5-(4-Fluoro-phenylethynyl)-pyrimidin-2-yl]-5,6,6-trimethyl-[1,3]oxazinan-2-one] | 114 | 78
O=C1O[C@H]2CCC[C@H]2N1c1ccc(C#Cc2cccnc2)cn1 (racemic) [Example 23, (3aRS,6aSR)-3-(5-Pyridin-3-ylethynyl-pyridin-2-yl)-hexahydro-cyclopentaoxazol-2-one] | 12 | 92
CC1(C)CCN(c2ccc(C#Cc3ccc(F)c(F)c3)cn2)C(=O)O1 [Example 80, 3-[5-(3,4-Difluoro-phenylethynyl)-pyridin-2-yl]-6,6-dimethyl-[1,3]oxazinan-2-one] | 37 | 69
O=C1O[C@H]2CCC[C@H]2N1c1ccc(C#Cc2cncc(F)c2)cn1 (racemic) [Example 24, (3aRS,6aSR)-3-[5-(5-Fluoro-pyridin-3-ylethynyl)-pyridin-2-yl]-hexahydro-cyclopentaoxazol-2-one] | 35 | 73
CN1C(=O)N(c2ncc(C#Cc3ccc(F)cc3)cn2)CC1(C)C [Example 125, 1-[5-(4-Fluoro-phenylethynyl)-pyrimidin-2-yl]-3,4,4-trimethyl-imidazolidin-2-one] | 13 | 44
CC1(C)CN(c2ccc(C#Cc3cncnc3)cn2)C(=O)O1 [Example 30, 5,5-Dimethyl-3-(5-pyrimidin-5-ylethynyl-pyridin-2-yl)-oxazolidin-2-one] | 80 | 43
CN1C(=O)N(c2ccc(C#Cc3cccnc3)cn2)CC1(C)C [Example 48, 3,4,4-Trimethyl-1-(5-pyridin-3-ylethynyl-pyridin-2-yl)-imidazolidin-2-one] | 14 | 89
CC1(C)CC(=O)N(c2ncc(C#Cc3cccc(Cl)c3)cn2)C1 [Example 119, 1-[5-(3-Chloro-phenylethynyl)-pyrimidin-2-yl]-4,4-dimethyl-pyrrolidin-2-one] | 11 | 26

Structure (SMILES) | EC50 [nM] | Emax [%]
CO[C@@H]1C(=O)N(c2ncc(C#Cc3ccccc3)cn2)CC1(C)C (single isomer, unassigned) [Example 128] | 46 | 54
Cc1cc(C#Cc2cccc(F)c2)cnc1N1CC(C)(C)N(C)C1=O [Example 108, 1-[5-(3-Fluoro-phenylethynyl)-3-methyl-pyridin-2-yl]-3,4,4-trimethyl-imidazolidin-2-one] | 102 | 115
CC1CN(c2ccc(C#Cc3ccccc3)cn2)C(=O)OC1(C)C (racemic) [Example 104, (RS)-5,6,6-Trimethyl-3-(5-phenylethynyl-pyridin-2-yl)-[1,3]oxazinan-2-one] | 42 | 109
COC1CN(c2ccc(C#Cc3ccccc3)cn2)C(=O)OC1(C)C (racemic) [Example 114, (RS)-5-Methoxy-6,6-dimethyl-3-(5-phenylethynyl-pyridin-2-yl)-[1,3]oxazinan-2-one] | 22 | 57
CC(C)N1C(=O)N(c2ccc(C#Cc3ccccc3)cn2)C2CCCCC21 (stereo not drawn) [Example 101, (3aSR,7aRS)-(3aRS,7RS)-1-Isopropyl-3-(5-phenylethynyl-pyridin-2-yl)-octahydro-benzoimidazol-2-one] | 39 | 77
CC1(C)CCN(c2cnc(C#Cc3ccccc3)cn2)C(=O)C1 [Example 163, 4,4-Dimethyl-1-(5-(phenylethynyl)pyrazin-2-yl)piperidin-2-one] | 69 | 74
CN1C(=O)N(c2ccc(C#Cc3ccc(F)cc3)cn2)CC12CC2 [Example 112, 6-[5-(4-Fluoro-phenylethynyl)-pyridin-2-yl]-4-methyl-4,6-diaza-spiro[2.4]heptan-5-one] | 80 | 89
CN1C(=O)N(c2ccc(C#Cc3cccnc3)cn2)C2CCCCC21 (stereo not drawn) [Example 85, (3aSR,7aRS)-(3aRS,7RS)-1-Methyl-3-(5-pyridin-3-ylethynyl-pyridin-2-yl)-octahydro-benzoimidazol-2-one] | 27 | 49
CC1(C)CC(=O)N(c2cnc(C#Cc3cccc(F)c3)cn2)C1 [Example 160] | 29 | 39
CC1(C)CN(c2ccc(C#Cc3ccccc3)cn2)C(=O)C1O (racemic) [Example 14, (3RS)-3-Hydroxy-4,4-dimethyl-1-(5-phenylethynyl-pyridin-2-yl)-pyrrolidin-2-one] | 388 | 114
CCN1C(=O)N(c2ccc(C#Cc3cccnc3)cn2)C2CCCCC21 (stereo not drawn) [Example 100, (3aSR,7aRS)-(3aRS,7RS)-1-Ethyl-3-(5-pyridin-3-ylethynyl-pyridin-2-yl)-octahydro-benzoimidazol-2-one] |  | 64
CC1(C)CN(c2ccc(C#Cc3ccccc3)cn2)C(=O)O1 [Example 5, 5,5-Dimethyl-3-(5-phenylethynyl-pyridin-2-yl)-oxazolidin-2-one] | 7 | 77
CN1C(=O)N(c2cnc(C#Cc3cccc(F)c3)cn2)CCC1(C)C [Example 167, 1-(5-((3-Fluorophenyl)ethynyl)pyrazin-2-yl)-3,4,4-trimethyltetrahydropyrimidin-2(1H)-one] | 26 | 54
CC1(C)CCCN(c2ccc(C#Cc3ccccc3)cn2)C(=O)O1 [Example 93, 7,7-Dimethyl-3-(5-phenylethynyl-pyridin-2-yl)-[1,3]oxazepan-2-one] | 36 | 104
CN1C(=O)N(c2ncc(C#Cc3ccccc3)cn2)CC12CC2 [Example 147, 4-Methyl-6-(5-phenylethynyl-pyrimidin-2-yl)-4,6-diaza-spiro[2.4]heptan-5-one] | 25 | 36
CC1(C)CCN(c2ccc(C#Cc3cc(F)ccc3F)cn2)C(=O)C1 [Example 92, 5′-(2,5-Difluoro-phenylethynyl)-4,4-dimethyl-3,4,5,6-tetrahydro-[1,2′]bipyridinyl-2-one] | 32 | 84
